Reference: ChEMBL document CHEMBL1201862, “PubChem BioAssay data set” (2004)
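Grown in 96-well plates, cells were treated for 48 hours with each compound at five concentrations. Insufficient inhibition: endpoint recorded as highest concentration tested. GI50 is the concentration that inhibits growth by half.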 Active and inactive are the calls of the source. No stated cut-off is given here; in the data, active = GI50 up to about 1.1 µM and inactive = higher.

What was measured:
Experiment in all cases: NCI anticancer screen, dose series, 48 h
A498 = tested on: A498
ACHN = tested on: ACHN
CCRF-CEM = tested on: CCRF-CEM
HCT-15 = tested on: HCT-15
HOP-62 = tested on: HOP-62
HOP-92 = tested on: HOP-92
HT-29 = tested on: HT-29
KM12 = tested on: KM12
MOLT-4 = tested on: MOLT-4
Malme-3M = tested on: Malme-3M
OVCAR-5 = tested on: OVCAR-5
RXF 393 = tested on: RXF 393
SF-268 = tested on: SF-268
SF-295 = tested on: SF-295
SK-MEL-2 = tested on: SK-MEL-2
SN12C = tested on: SN12C
SNB-75 = tested on: SNB-75
TK-10 = tested on: TK-10
U-251 = tested on: U-251

With `COC(=O)c1cccc(C(=O)OC)c1` the GI50 (A498) was > 100 µM (inactive), the GI50 (ACHN) was > 100 µM (inactive) and the GI50 (CCRF-CEM) was > 100 µM (inactive). For the same compound, the GI50 (HCT-15) was greater than 100 µM, the GI50 (HOP-62) was > 100 µM (inactive) and the GI50 (HOP-92) was > 100 µM (inactive). The GI50 (HT-29) was > 100 µM (inactive), the GI50 (KM12) was > 100 µM (inactive) and the GI50 (MOLT-4) was > 100 µM (inactive). The GI50 (Malme-3M) was > 100 µM (inactive), the GI50 (OVCAR-5) was > 100 µM (inactive) and the GI50 (RXF 393) was > 100 µM (inactive). For the same compound, the GI50 (SF-268) was > 100 µM (inactive), the GI50 (SF-295) was > 100 µM (inactive) and the GI50 (SK-MEL-2) was > 100 µM (inactive). The GI50 (SN12C) was > 100 µM (inactive), the GI50 (SNB-75) was > 100 µM (inactive) and the GI50 (TK-10) was > 100 µM (inactive). For the same compound, the GI50 (U-251) was > 100 µM (inactive).
